Assay results taken from US20140296343A1, “NON-PEPTIDE BDNF NEUROTROPHIN MIMETICS” (PharmatrophiX, Inc., priority 2010, published 2014).

Assays:
[1] = test system: mouse E16 striatal neurons; details: cited from earlier work
[2] = test system: E16-17 hippocampal neurons; assay: Aβ-induced neuronal degeneration (Alzheimer's disease model); type: cell-based; details: for prevention of Aβ-induced degeneration: Aβ1-42 oligomer 10 μM
Experimental: The ability of the BDNF mimetics to prevent Aβ-induced neuronal degeneration can be tested as a model of the compounds' ability to treat Alzheimer's disease. E16-17 hippocampal neurons are matured for 6 days and then incubated for 3 days with the indicated combinations of Aβ oligomer preparations (Dahigren, K. N., et al. (2002) J Biol Chem 277, 32046-32053), neurotrophins and neurotrophin mimetics. Following the three day incubation, neuronal survival is assessed using standard morphological criteria (Massa, S. M., et al. (2006) J Neurosci 26, 5288-5300).
Addition of Aβ1-42 oligomer (10 μM) but not control AβScrambled oligomer (10 μM) results in an approximate 40% reduction in neuronal survival. […] The effectiveness of BDNF mimetics of the present invention can be compared to BDNF in blocking Aβ-induced degeneration.

TrkB = target: T1, TrkB (Homo sapiens, UniProt Q16620); assay: Trk activation by Western blot of phospho-Trk in NIH3T3 cells expressing TrkB; type: cell-based
T1 construct: expressed in transfected cells; host or cells: NIH3T3 (mouse fibroblasts, no native Trk receptors)
T1 sequence (Q16620 32-822): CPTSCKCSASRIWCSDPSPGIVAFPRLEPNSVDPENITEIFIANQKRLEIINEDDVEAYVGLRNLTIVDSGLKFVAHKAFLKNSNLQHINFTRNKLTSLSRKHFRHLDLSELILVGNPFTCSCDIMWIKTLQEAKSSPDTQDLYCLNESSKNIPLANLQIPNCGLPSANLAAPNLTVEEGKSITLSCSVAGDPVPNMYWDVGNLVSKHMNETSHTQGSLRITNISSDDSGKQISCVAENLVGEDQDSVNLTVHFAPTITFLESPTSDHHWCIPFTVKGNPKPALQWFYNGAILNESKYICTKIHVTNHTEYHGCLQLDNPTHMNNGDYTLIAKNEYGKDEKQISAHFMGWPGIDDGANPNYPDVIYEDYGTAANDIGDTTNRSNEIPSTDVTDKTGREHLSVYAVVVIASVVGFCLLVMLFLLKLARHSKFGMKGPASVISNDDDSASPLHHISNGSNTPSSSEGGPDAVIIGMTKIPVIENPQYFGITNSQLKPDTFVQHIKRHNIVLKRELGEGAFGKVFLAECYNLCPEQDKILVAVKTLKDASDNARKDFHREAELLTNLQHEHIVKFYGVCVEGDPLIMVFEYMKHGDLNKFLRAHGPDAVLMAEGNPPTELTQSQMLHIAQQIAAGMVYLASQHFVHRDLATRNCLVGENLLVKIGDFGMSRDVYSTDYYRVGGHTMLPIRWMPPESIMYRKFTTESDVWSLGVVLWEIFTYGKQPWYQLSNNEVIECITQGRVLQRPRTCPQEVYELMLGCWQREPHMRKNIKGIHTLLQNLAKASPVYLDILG
Text: (§1) To assess the interactions of the BDNF loop 2 mimetic compounds with TrkB receptors, the ability of the compounds of the invention to activate TrkA, TrkB, and TrkC is compared in a series of Western blotting experiments. […] Western blots were used to detect phospho-Trk which is a standard method for detecting Trk activation.

TrkC = target: T2, TrkC (Homo sapiens, UniProt Q16288); assay: Trk activation by Western blot of phospho-Trk in NIH3T3 cells expressing TrkC; type: cell-based
T2 construct: expressed in transfected cells; host or cells: NIH3T3 (mouse fibroblasts, no native Trk receptors)
T2 sequence (Q16288 32-839): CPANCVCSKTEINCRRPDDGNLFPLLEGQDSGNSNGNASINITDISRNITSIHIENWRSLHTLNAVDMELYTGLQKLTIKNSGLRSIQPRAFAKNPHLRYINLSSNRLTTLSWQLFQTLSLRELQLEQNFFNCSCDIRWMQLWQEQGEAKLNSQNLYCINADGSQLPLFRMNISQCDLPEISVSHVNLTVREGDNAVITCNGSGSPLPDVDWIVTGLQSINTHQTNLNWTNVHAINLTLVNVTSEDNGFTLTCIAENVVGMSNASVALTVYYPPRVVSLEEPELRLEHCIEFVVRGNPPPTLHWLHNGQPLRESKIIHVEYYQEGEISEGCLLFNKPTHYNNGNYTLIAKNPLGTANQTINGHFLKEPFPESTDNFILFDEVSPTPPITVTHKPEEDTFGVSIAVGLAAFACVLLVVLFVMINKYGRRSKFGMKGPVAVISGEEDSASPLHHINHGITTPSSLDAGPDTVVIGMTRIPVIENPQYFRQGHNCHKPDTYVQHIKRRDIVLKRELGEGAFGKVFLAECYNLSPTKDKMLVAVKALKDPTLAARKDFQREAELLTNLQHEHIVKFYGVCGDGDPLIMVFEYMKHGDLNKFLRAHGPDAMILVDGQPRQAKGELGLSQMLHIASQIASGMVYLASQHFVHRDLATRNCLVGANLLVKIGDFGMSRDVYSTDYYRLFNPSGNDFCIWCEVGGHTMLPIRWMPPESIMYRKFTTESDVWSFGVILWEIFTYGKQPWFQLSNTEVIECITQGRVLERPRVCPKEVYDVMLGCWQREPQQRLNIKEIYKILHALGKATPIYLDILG
Experimental: as §1
A measurement of NIH3T3 cells expressing TrkC can also be used to evaluate the compounds of the invention. Total amount of TrkC present is determined by probing with anti-TrkC antibodies.

TrkA = target: T3, TrkA (Homo sapiens, UniProt P04629); assay: Trk activation by Western blot of phospho-Trk in NIH3T3 cells expressing TrkA; type: cell-based
T3 construct: expressed in transfected cells; host or cells: NIH3T3 (mouse fibroblasts, no native Trk receptors)
T3 sequence (P04629 33-796): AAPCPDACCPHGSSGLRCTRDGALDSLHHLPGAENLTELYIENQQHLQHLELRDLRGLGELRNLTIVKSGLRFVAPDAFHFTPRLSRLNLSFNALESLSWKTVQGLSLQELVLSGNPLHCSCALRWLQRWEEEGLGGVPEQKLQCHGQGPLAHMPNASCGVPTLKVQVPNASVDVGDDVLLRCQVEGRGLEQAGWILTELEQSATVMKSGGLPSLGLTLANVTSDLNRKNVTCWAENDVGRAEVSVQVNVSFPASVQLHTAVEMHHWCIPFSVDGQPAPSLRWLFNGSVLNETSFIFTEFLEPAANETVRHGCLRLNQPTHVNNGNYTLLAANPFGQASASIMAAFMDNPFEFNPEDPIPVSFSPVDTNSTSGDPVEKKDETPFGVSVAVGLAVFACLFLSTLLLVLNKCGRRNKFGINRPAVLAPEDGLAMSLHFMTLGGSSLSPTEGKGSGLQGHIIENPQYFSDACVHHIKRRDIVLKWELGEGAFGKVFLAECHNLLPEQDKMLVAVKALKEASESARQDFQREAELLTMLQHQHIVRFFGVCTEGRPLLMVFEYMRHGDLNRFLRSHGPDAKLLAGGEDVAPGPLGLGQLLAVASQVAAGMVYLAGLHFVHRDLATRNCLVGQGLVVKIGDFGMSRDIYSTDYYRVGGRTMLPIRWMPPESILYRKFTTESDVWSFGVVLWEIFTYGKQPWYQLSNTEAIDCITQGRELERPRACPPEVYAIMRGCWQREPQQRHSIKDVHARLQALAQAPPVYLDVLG
Text: as §1

Row | Molecule | activation of TrkB (Trk phosphorylation, anti-TrkY490) (TrkB) | prevention of Aβ-induced degeneration ([2]; 3 day incubation) | phosphorylation of Trk in TrkC-expressing cells (TrkC) | further results
1 | COC(=O)[C@@]1(O)C[C@H]2O[C@]1(C)n1c3ccccc3c3c4c(c5c6ccccc6n2c5c31)C(=O)NC4 [Compound K252a] | – | – | – | effect on quinolinic acid-induced death ([1]; K252a alone): no effect; effect on the ability of BDNF to prevent quinolinic acid-induced death ([1]; K252a with BDNF): blocks the ability of BDNF to prevent death
2 | Aβ1-42 oligomer: amyloid-β 1-42 oligomer preparation used to induce neuronal degeneration [reference compound] | – | – | – | reduction in neuronal survival ([2]; 10 μM, 3 day incubation): ~40%
3 | NGF: Nerve Growth Factor, a neurotrophin; native ligand of TrkA | do not activate TrkB | fails to prevent Aβ-induced degeneration | – | effect on LM11A-31 blocking of Aβ-induced degeneration ([2]; NGF together with LM11A-31): blocked
4 | NT-3: Neurotrophin-3; native ligand of TrkC | – | – | promotes the phosphorylation of Trk | –
5 | CC[C@H](C)[C@H](N)C(=O)NCCN1CCOCC1 [LM11A-31, reference compound] | – | blocks Aβ-induced degeneration | – | –
6 | BDNF: Brain Derived Neurotrophic Factor, a neurotrophin; native ligand of TrkB (protein, UniProt P23560 19-247, looked up) Neurotrophic factor BDNF …: APMKEANIRGQGGLAYPGVRTHGTLESVNGPKAGSRGLTSLADTFEHVIEELLDEDQKVRPNEENNKDADLYTSRVMLSSQVPLEPPLLFLLEEYKNYLDAANMSMRVRRHSDPARRGELSVCDSISEWVTAADKKTAVDMSGGTVTVLEKVPVSKGQLKQYFYETKCNPMGYTKEGCRGIDKRHWNSQCRTTQSYVRALTMDSKKRIGWRFIRIDTSCVCTLTIKRGR | activate TrkB | – | do not | activation of TrkA (Trk phosphorylation) (TrkA): does not; prevention of quinolinic acid-induced death ([1]; previous work): can prevent quinolinic acid-induced death
